“Also recorded” adds a separate entry of the source. Where a SMILES comes first, the peptide text is derived from it. Bridges are numbered along the chain shown (N, C = ends).
Key:
[1] = tested on: TRPV2; assay: Selectivity: 2-APB-evoked TRPV2 current; type: cell-based, murine; settings: 500 μM 2-APB; normalized to 4 mM 2-APB; mean ± S.E.M., n = 4
Protocol: (§1) HEK293T cells are cultured using DMEM medium contained 10% FBS in a cell incubator with 5% CO2 at 37 °C. Plasmids of murine TRPV1, TRPV2, TRPV3 and human TRPA1 are labeled with YFP or GFP as indicators for subsequent electrophysiological recordings. cDNA constructs of ion channels were transiently transfected with Lipofectamine 2000 (Invitrogen, Carlsbad, CA). And one or 2 days after transient transfection, electrophysiological recordings were performed.
(§2) Patch-clamp recordings were carried out with a HEKA EPC10 amplifier controlled by PatchMaster software (HEKA). Patch pipettes were prepared from borosilicate glass and fire-polished to resistance of 3–8 MΩ by P-97 puller. Both bath solution and pipette solution contained 130 mM NaCl, 10 mM glucose, 0.2 mM EDTA, and 3 mM HEPES and were adjusted to pH 7.2–7.4 with NaOH for whole-cell recordings. For solution with pH lower than 6.5, HEPES was replaced by MES. Whole-cell recordings were performed at ±80 mV. Current was sampled at 10 kHz and filtered at 2.9 kHz. All recordings were performed at room temperature (25 °C). A gravity-driven system (RSC-200, Bio-Logic) with freely rotated perfusion tubes was used for the perfusion of peptide or ligands. Bath and ligand solution were delivered through separate tubes to minimize the mixing of solutions. Patch pipette holding cells was placed in front of the perfusion tube outlet for perfusion.

[2] = tested on: TRPV3; assay: Selectivity: 2-APB-evoked TRPV3 current; type: cell-based, murine; settings: 30 μM 2-APB; normalized to 1 mM 2-APB; mean ± S.E.M., n = 4
Protocol: as §1, §2

[3] = tested on: TRPA1; assay: Selectivity: AITC-evoked TRPA1 current; type: cell-based, human; settings: 30 μM AITC; normalized to 1 mM AITC; mean ± S.E.M., n = 4
Protocol: as §1, §2

[4] = tested on: TRPV1; settings: cited from earlier work
Description: Positive allosteric modulator (PAM) is defined as a ligand without direct activation of its target, but potentiates the activity of agonists of targets. PAMs of TRPV1 have shown significant analgesic effect by inducing calcium overloading in previous reports[11],[12]. For instance, MRS1477 is developed as a small molecule PAM of TRPV1[13]. […] For instance, noxious heat, proton, and divalent cations induce conformational changes in the outer pore to activate TRPV1[27]–[29].

[5] = cited from earlier work
Description: Transient receptor potential vanilloid 1 (TRPV1) ion channel is a polymodal nociceptor broadly expressed in sensory neurons involved in pain sensation, making this channel a target for analgesia. Since TRPV1 deletion in rodents led to significant tolerance to noxious heat hyperalgesia[3],[4], antagonists of TRPV1 became the first choice to develop analgesic agents targeting TRPV1 in the past decades. Pharmacological inhibition TRPV1 indeed effectively alleviates dental, rectal, and thermal pain[5],[6]. However, TRPV1 also plays critical roles in thermoregulation, thus its antagonists suf ... || Positive allosteric modulator (PAM) is defined as a ligand without direct activation of its target, but potentiates the activity of agonists of targets. PAMs of TRPV1 have shown significant analgesic effect by inducing calcium overloading in previous reports[11],[12]. For instance, MRS1477 is developed as a small molecule PAM of TRPV1[13]. […] However, as both De1 and De3 bind to the intracell ... || TRPV1 plays a critical role in the pathogenesis of chronic pain[30]–[33], and has been a long-pursued target for pain management. To circumvent the side effects of the first-generation channel inhibitors occurred in clinical trials, alternative strategies such as the PAMs of TRRV1 have been developed.

[6] = biological target: T1, TRPV1 (Mus musculus, UniProt Q704Y3); assay: Whole-cell patch clamp: potentiation of capsaicin-evoked TRPV1 current; type: cell-based, murine
Protocol: as §1
as §2, with “Patch pipette holding cells was placed in front of the perfusion tube outlet for perfusion.” left out
(§3) Data from whole-cell recordings were analyzed in Igor Pro version 5.05 (WaveMatrix). […]

[7] = local delivery; words
Protocol: 20 μl of CFA was injected first to induce a chronic pain model. […] All data were shown as mean ± S.E.M. Source data are available as a Source Data file.
Complete Freund’s adjuvant (CFA) was injected at a volume of 20 μl to induce chronic inflammatory pain.

[8] = tested on: mouse hind paw; type: in vivo, mice; settings: 2 μg folded s-RhTx with capsaicin 200 ng; n = 9; words
Description: (§4) Figure R3. […] (A) Statistical […]
(§5) results of hind paw thickness in mice.
(§6) N.S., not significant, two-way ANOVA. n = 9 mice in each group. (B) H&E staining showing the results of cell […]
(§7) N.S., not significant, n = 3 mice in each group. Scale bar, 50 μm. All data were shown as mean ± s.e.m. […]
(§8) different experiment should be performed.
(§9) Response: We thank the reviewer for the insightful comments. We also agree with the reviewer that the local injections of s-RhTx in this study are not likely to change body temperature. To test […]
(§10) 1) in mice and measured body temperature. […]
(§11) n = 6 mice in each group. No significance in two-way ANOVA. All data were shown as mean ± s.e.m. […]

[9] = type: in vivo, mice; settings: i.p. 10 mg kg-1 peptide with capsaicin 1 mg kg-1; n = 6; words
Description: as §4, §5, §6, §7, §8, §9, §10, §11

[10] = tested on: mouse hind paw skin; type: in vivo, mice; settings: 1 week; folded s-RhTx with capsaicin; n = 3; words
Description: as §4, §5, §6, §7, §8, §9, §10, §11

[11] = biological target: T2, TRPV1 E652D (Mus musculus, UniProt Q704Y3, E652D); assay: Mutant cycle analysis: concentration response, Kd and L on TRPV1 E652D; type: cell-based, murine; settings: mean ± S.E.M.
Protocol: In this analysis, the ligand binding (represented by Kd) and subsequent conformational changes leading to channel opening (represented by L) were separately quantified. Kd and L were calculated by the formulae: EC50 = Kd/(1 + L) and Po max = L/(1 + L), when Po max and EC50 are experimentally measured[20],[21]. Previously we have successfully performed this analysis to establish the interactions between peptide toxin BmP01 and TRPV1[16].
(§12) Site mutations of mTRPV1 were generated by Fast Mutagenesis Kit (Takara Bio). Primers used to generate point mutations are summarized in Supplementary Table 1. All mutations were confirmed by sequencing.
Patch-clamp recordings were carried out with a HEKA EPC10 amplifier controlled by PatchMaster software (HEKA). Patch pipettes were prepared from borosilicate glass and fire-polished to resistance of 3–8 MΩ by P-97 puller. Both bath solution and pipette solution contained 130 mM NaCl, 10 mM glucose, 0.2 mM EDTA, and 3 mM HEPES and were adjusted to pH 7.2–7.4 with NaOH for whole-cell recordings. […]
as §3
The strength of coupling was determined by the coupling energy (kT multiplied by LnΩ, where k is the Boltzmann constant and T is temperature in Kelvin). LnΩ was calculated by the following equation: LnΩ=LnKd_1⋅Kd_4/Kd_2⋅Kd_3

[12] = biological target: T2, TRPV1 E652D; assay: Calcium imaging, TRPV1 mutant E652D; type: cell-based, murine; settings: 30 μM s-RhTx with 10 nM capsaicin; n = 45
Protocol: as §12
(§13) Calcium imaging assay was performed as previously described[12],[20]. In brief, HEK293T cells expressing TRPV1 were incubated with 2 μM Fluo-4 AM (Thermo Fisher) in 2 mM calcium Ringer’s solution (140 mM NaCl, 5 mM KCl, 2 mM MgCl2, 2 mM CaCl2, 10 mM glucose, and 10 mM HEPES, pH 7.4). Fluorescence images of HEK293T cells were acquired with Nikon Eclipse Ti2 microscope with optiMOS charge-coupled device camera controlled by the Ocular Software (Molecular Devices). Fluo-4 AM was excited at 500/20-nm excitation, and fluorescence emission was detected at 535/30-nm. Fluorescence images were analyzed with Fiji software and Office Excel.

[13] = biological target: T1, TRPV1; assay: Calcium imaging, HEK293T cells expressing TRPV1; type: cell-based, murine; settings: 30 μM s-RhTx with 10 nM capsaicin; n = 12
Protocol: as §1, §13

[14] = tested on: DRG neurons, Trpv1-Ai14 mice; assay: Trpv1+ and Nissl+ neurons in DRGs; type: in vivo; settings: for Trpv1+ neurons (% of all neurons): sheet S5e
Protocol: (§14) Adult C57 BL/6 mice (male, 8–10 weeks) and Trpv1^-/- mice (Jax Strain #:003770) were used for behavioral studies. To specifically label Trpv1-positive nerve fibers in skin tissues, Trpv1-Cre mice[36] (Jax Strain #:017769) were crossed with floxed reporter lines (Ai32, Jax Strain #:012569 or Ai14, Jax Strain #:007914) to get the transgenic reporter (Trpv1-Ai32 or Trpv1-Ai14) mice. Mice were group-housed at 22–24 °C and relative humidity of 30–70% under the 12 h light-dark cycle with access to standard food and water ad libitum. All the animal procedures were approved by the Institutional Animal Care & Use Committee (IACUC) of Zhejiang University.
(§15) After appropriate survival times, the mice were deeply anesthetized with isoflurane and perfused through the ascending aorta with PBS, followed by 4% PFA. After the perfusion, the hind paw glabrous skins and L4-L6 DRGs were removed and postfixed in the same fixative overnight. Skin sections (30 μm) and DRG sections (10 μm) were cut in a cryostat. Sections were blocked with 2% BSA for 2 h at room temperature and then incubated with Deep-red 640/660-conjugated Nissl (1:1000) at room temperature for 2 h. Sections were then incubated with DAPI (1:10,000, Vector Laboratories, catalog H-1200) for 5 min, followed by three times washing with PBS for 5 min each. The stained and mounted sections were examined with a Nikon fluorescence microscope, and images were captured with a charge-coupled device Spot camera. For quantification analysis, at least three sections from each mouse were selected, and at least three mice were analyzed in each group. To evaluate Trpv1-positive nerve fiber degeneration, transgenic reporter (Trpv1-Ai32 or Trpv1-Ai14) mice were used for the quantification of intra-epidermal nerve fiber (IENF) density. IENF density was calculated by counting the number of IENF crossing the epidermis-dermis boundary within unit length.

[15] = tested on: Trpv1+ nerve fibers, Trpv1-Ai32 / Trpv1-Ai14 mice; assay: Trpv1+ intra-epidermal nerve fiber (IENF) quantification; type: in vivo; settings: folded s-RhTx without capsaicin; words
Protocol: as §14, §15

[16] = biological target: T1, TRPV1; assay: Whole-cell patch clamp: potentiation of proton-evoked TRPV1 current; type: cell-based, murine; settings: pH 6.5; Hill fit; n = 4 cells; read-out: EC50, enhancement of proton-induced current
Protocol: as §1
as §2, with “Patch pipette holding cells was placed in front of the perfusion tube outlet for perfusion.” left out
as §3

T1 sequence (Q704Y3 whole entry): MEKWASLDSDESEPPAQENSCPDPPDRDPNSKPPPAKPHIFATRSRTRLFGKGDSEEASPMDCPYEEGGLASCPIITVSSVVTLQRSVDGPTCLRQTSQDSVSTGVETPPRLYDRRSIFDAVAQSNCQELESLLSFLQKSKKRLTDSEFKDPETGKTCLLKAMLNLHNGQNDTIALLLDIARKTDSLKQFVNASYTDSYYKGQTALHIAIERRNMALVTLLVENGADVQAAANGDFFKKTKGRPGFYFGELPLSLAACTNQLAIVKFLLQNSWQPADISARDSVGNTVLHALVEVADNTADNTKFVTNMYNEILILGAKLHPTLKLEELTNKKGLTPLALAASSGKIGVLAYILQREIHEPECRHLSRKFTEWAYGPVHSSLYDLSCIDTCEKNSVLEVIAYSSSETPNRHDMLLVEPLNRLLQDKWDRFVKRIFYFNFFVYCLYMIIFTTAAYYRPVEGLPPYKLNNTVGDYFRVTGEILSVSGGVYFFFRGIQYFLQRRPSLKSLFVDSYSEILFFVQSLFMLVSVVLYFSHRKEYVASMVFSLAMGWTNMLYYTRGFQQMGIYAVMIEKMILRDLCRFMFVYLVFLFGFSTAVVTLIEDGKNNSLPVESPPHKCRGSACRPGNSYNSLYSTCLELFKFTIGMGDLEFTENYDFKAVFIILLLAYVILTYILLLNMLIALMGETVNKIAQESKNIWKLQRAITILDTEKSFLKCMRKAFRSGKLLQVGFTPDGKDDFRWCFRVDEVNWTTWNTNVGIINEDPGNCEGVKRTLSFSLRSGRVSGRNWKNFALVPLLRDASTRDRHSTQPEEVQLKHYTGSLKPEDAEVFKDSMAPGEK
T2 sequence (Q704Y3 whole entry E652D): as the sequence (Q704Y3 whole entry) above, with E652D counted along it

Compound: NCCOB(c1ccccc1)c1ccccc1 [2-APB]
- normalized TRPV2 current, 2-APB alone [1]: 7.06 ± 2.25%
- normalized TRPV3 current, 2-APB alone [2]: 7.08 ± 3.57%

Compound: C=CCN=C=S [AITC]
- normalized TRPA1 current, AITC alone [3]: 41.06 ± 12.85%

Compound: CCOC(=O)C1=C(c2ccccc2)NC(C)=C(C(=O)SCCOC)C1CC (centres unmarked) [MRS1477]
- TRPV1 activation by capsaicin [4]: enhances TRPV1 activation by capsaicin
- duration of analgesic effects [5]: about two weeks

Compound: C=C(C)[C@]12C[C@@H](C)[C@@]34O[C@](Cc5ccccc5)(O[C@@H]1[C@@H]3C=C(COC(=O)Cc1ccc(O)c(OC)c1)C[C@]1(O)C(=O)C(C)=C[C@@H]41)O2 [resiniferatoxin]
- cell death in TRPV1-expressing neurons [5]: induces cells death in TRPV1-expressing neurons

Compound: CC[C@H](C)[C@H](NC(=O)[C@@H]1CSSC[C@@H]2NC(=O)[C@H]([C@@H](C)O)NC(=O)[C@H](C(C)C)NC(=O)CNC(=O)[C@H](CC(N)=O)NC(=O)[C@@H](NC(=O)[C@@H]3CCCN3)CSSC[C@H](NC(=O)[C@H](CCCNC(=N)N)NC(=O)[C@H](Cc3ccc(O)cc3)NC(=O)CNC(=O)[C@H](CO)NC(=O)[C@@H]3CCCN3C2=O)C(=O)N[C@@H](CO)C(=O)N[C@@H]([C@@H](C)CC)C(=O)N[C@@H](C(C)C)C(=O)N[C@@H](CC(=O)O)C(=O)N[C@@H](CCCCN)C(=O)N[C@@H](CCC(N)=O)C(=O)N1)C(=O)N[C@@H](CCCCN)C(=O)N[C@@H](CCCCN)C(=O)N[C@@H](CCC(=O)O)C(=O)O [s-RhTx] (H-PCNGVTCPSGYRCSIVDKQCIKKE-OH; disulfide 2-13, 7-20)
- EC50 [6]: 0.89 ± 0.45 µM
- body temperature change [7]: did not cause any changes in the body temperature
- local inflammation of hind paw [8]: no obvious local
- body temperature change, systemic [9]: didn’t change body temperature
- recruitment of immune cells [10]: did not induce the recruitment
- EC50 [11]: 7.16 ± 1.42 µM
- increase of intracellular calcium fluorescence, E652D [12]: 47.5 ± 0.05%
- enhancement of intracellular calcium, WT TRPV1 [13]: 56.09 ± 8.62%
- Trpv1+ neuron proportion and total neuron density in DRGs ([14]; co-injection with capsaicin, 1 and 4 weeks, words, listed as folded s-RhTx): did not change at 1 week; also recorded: not significantly changed
- Trpv1+ neurons (% of all neurons) ([14]; 1 week, Mouse # 1): 33.4%
- Trpv1+ neurons (% of all neurons) ([14]; 1 week, Mouse # 2): 33.4%
- Trpv1+ neurons (% of all neurons) ([14]; 1 week, Mouse # 3): 35.2%
- Trpv1+ neurons (% of all neurons) ([14]; 4 weeks, Mouse # 1): 37.1%
- Trpv1+ neurons (% of all neurons) ([14]; 4 weeks, Mouse # 2): 32.1%
- Trpv1+ neurons (% of all neurons) ([14]; 4 weeks, Mouse # 3): 33.0%
- IENF degeneration, peptide alone [15]: did not induce
- EC50 [16]: 1.58 ± 0.5 µM
